Read-outs that look alike come from different tables or passages of the source.
Columns and labels:
[1] = target: T1, Isoform 1 of Nicotinamide phosphoribosyltransferase (Homo sapiens, UniProt P43490); experiment: binding to immobilized V16742 (IVA1/IVA2, HeLa lysate, MS)
T1 construct: endogenous in cells; host or cells: HeLa S3

[2] = target: T2, Testis expressed sequence 264 protein precursor (Homo sapiens, UniProt Q9Y6I9); experiment: as above
T2 construct: endogenous in cells; host or cells: HeLa S3
T2 sequence (Q9Y6I9 1-313): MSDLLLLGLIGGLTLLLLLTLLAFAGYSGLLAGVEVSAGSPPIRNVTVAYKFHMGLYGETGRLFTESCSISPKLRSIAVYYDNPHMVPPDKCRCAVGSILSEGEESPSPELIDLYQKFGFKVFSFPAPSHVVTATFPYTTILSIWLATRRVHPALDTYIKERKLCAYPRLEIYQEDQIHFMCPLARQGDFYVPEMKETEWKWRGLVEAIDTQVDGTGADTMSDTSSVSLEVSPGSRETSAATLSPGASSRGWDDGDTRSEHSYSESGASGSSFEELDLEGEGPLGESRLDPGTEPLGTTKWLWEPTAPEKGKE

DYRK1A (IPI00219250) = target: T3, DYRK1A (IPI00219250) (Homo sapiens, UniProt Q13627); experiment: binding to VI16742 beads (HeLa lysate, SILAC MS)
T3 construct: endogenous in cells; host or cells: HeLa S3 cell lysate

CCNH (IPI00021305) = experiment: binding to VI16742 beads (HeLa lysate, SILAC MS); set-up: species or system human
Description: (§1) In an alternative implementation of the chemical proteomic approach according to the invention, the broadly-selective pyrido[2,3-d]pyrimidine-based kinase inhibitor VI16742 has been used for affinity capture (FIG. 10a). […] As shown by gene ontology analysis, the corresponding molecular functions were highly over-represented in proteins specifically retained by the inhibitor resin (FIG. 10b).

CCNK (IPI00783214) = experiment: binding to VI16742 beads (HeLa lysate, SILAC MS); set-up: species or system human
Description: as §1

ERCC2 (IPI00029728) = experiment: binding to VI16742 beads (HeLa lysate, SILAC MS); set-up: species or system human
Description: as §1

LIMS1 (IPI00788612) = experiment: binding to VI16742 beads (HeLa lysate, SILAC MS); set-up: species or system human
Description: as §1

PARVA (IPI00018963) = experiment: binding to VI16742 beads (HeLa lysate, SILAC MS); set-up: species or system human
Description: as §1

RSU1 (IPI00847168) = experiment: binding to VI16742 beads (HeLa lysate, SILAC MS); set-up: species or system human
Description: as §1

WDR68 (IPI00006754) = experiment: binding to VI16742 beads (HeLa lysate, SILAC MS); set-up: species or system human
Description: as §1

ALK2 (ACVR1) = target: T4, ALK2 (ACVR1) (Homo sapiens, UniProt Q04771)
T4 sequence (Q04771 21-509): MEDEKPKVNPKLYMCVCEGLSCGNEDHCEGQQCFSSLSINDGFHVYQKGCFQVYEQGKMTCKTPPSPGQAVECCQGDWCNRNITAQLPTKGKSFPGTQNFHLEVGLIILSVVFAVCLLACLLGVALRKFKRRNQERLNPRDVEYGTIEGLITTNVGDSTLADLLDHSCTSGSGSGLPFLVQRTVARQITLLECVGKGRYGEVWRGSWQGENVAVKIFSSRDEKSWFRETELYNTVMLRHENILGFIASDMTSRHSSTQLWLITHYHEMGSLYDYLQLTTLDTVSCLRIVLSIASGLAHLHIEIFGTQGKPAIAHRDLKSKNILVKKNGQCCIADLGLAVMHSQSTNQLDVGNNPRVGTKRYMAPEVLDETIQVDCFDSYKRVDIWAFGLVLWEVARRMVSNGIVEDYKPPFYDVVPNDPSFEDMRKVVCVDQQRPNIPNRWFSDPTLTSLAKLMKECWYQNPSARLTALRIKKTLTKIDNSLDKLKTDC

MNK1 (MKNK1) = MNK1 (MKNK1) (Homo sapiens, UniProt Q9BUB5)
Chain of MNK1 (MKNK1) (Q9BUB5 whole entry): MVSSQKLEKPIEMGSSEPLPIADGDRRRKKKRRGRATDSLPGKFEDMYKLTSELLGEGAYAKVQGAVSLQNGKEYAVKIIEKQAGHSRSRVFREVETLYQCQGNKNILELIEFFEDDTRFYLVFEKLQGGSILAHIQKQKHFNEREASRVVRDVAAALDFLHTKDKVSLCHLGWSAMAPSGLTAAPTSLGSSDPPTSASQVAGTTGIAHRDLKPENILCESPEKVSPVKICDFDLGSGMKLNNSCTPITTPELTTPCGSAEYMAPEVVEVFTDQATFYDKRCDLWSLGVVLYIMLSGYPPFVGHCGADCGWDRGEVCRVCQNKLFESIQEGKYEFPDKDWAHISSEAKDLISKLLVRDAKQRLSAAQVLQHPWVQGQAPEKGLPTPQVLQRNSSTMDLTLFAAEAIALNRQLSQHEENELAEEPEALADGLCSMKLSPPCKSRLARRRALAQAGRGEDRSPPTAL

RPL7A = RPL7A (Homo sapiens, UniProt P62424)
YES = YES (Homo sapiens, UniProt P07947); experiment: binding to immobilized V16742 (IVA1/IVA2, HeLa lysate, MS)
Chain of YES (P07947 whole entry): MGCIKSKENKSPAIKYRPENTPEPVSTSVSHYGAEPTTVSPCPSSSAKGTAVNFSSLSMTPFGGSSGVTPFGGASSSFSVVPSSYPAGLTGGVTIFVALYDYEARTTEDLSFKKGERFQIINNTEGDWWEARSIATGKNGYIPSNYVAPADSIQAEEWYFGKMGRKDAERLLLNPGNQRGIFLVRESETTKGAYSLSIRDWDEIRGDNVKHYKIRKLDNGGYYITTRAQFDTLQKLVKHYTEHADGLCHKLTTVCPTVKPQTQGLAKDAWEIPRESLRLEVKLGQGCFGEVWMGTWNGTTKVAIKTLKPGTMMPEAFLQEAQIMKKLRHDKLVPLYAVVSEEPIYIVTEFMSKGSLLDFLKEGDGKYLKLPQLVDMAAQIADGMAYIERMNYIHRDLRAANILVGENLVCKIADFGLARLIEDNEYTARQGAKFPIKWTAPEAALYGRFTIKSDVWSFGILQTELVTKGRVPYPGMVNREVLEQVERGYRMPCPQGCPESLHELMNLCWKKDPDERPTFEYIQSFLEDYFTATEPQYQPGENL

[3] = average of two experiments, read-out: Kd Avg
[4] = control beads vs first incubation

T1 sequence (P43490 whole entry, canonical isoform): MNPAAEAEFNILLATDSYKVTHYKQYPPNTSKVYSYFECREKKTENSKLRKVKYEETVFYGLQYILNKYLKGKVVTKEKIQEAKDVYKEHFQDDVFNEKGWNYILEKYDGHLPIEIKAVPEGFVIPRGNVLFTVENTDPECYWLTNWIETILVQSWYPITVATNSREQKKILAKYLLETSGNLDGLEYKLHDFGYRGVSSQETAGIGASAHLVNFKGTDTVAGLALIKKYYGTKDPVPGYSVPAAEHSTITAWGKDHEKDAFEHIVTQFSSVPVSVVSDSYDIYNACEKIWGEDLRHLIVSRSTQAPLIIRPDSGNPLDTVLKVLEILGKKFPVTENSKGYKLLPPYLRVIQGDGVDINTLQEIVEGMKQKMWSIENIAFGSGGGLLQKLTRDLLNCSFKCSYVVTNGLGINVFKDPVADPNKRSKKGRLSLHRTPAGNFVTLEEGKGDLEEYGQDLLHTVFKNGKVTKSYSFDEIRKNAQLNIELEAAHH

## CC(C)n1c(=O)ccc2cnc(Nc3ccc(OCCN)cc3)nc21 [V16742]
[1]; Experiment 1, 1.87 μM 16742
  Percent bound at various 16742 conc: 2.80%
[1]; Experiment 1, 8.74 μM 16742
  Percent bound at various 16742 conc: 2.70%
[1]; Experiment 1, 52 μM 16742
  Percent bound at various 16742 conc: 54.03%
[1]; Experiment 1, read-out: Kd
  Kd: 54.8 µM
[1]; Experiment 2, 1.87 μM 16742
  Percent bound at various 16742 conc: 2.28%
[1]; Experiment 2, 8.74 μM 16742
  Percent bound at various 16742 conc: 3.40%
[1]; Experiment 2, 52 μM 16742
  Percent bound at various 16742 conc: 41.68%
[1]; Experiment 2, read-out: Kd
  Kd: 80.3 µM
[1]; [3]
  Kd: 67.5 µM
[2]; Experiment 1, 1.87 μM 16742
  Percent bound at various 16742 conc: 2.22%
[2]; Experiment 1, 8.74 μM 16742
  Percent bound at various 16742 conc: 2.55%
[2]; Experiment 1, 52 μM 16742
  Percent bound at various 16742 conc: 51.05%
[2]; Experiment 1, read-out: Kd
  Kd: 60 µM
[2]; Experiment 2, 1.87 μM 16742
  Percent bound at various 16742 conc: 2.11%
[2]; Experiment 2, 8.74 μM 16742
  Percent bound at various 16742 conc: 1.91%
[2]; Experiment 2, 52 μM 16742
  Percent bound at various 16742 conc: 24.69%
[2]; Experiment 2, read-out: Kd
  Kd: 165 µM
[2]; [3]
  Kd: 113 µM
DYRK1A (IPI00219250); [4]
  rAVERAGE (CTRL/1 INC): 0.08
DYRK1A (IPI00219250); immobilized VI16742
  Ki: 83.8 µM
DYRK1A (IPI00219250); second vs first incubation
  rAVERAGE (2 INC/1 INC): 0.62
CCNH (IPI00021305); [4]
  rAVERAGE (CTRL/1 INC): 0.05
CCNH (IPI00021305); immobilized VI16742
  Ki: 96.9 µM
CCNH (IPI00021305); second vs first incubation
  rAVERAGE (2 INC/1 INC): 0.65
CCNK (IPI00783214); 3 mg vs 1 mg lysate
  r (3 MG/1 MG LYSATE): 3.84
CCNK (IPI00783214); 5 h vs 2.5 h incubation time
  r (5 h/2.5 h INC. TIME): 1.27
CCNK (IPI00783214); [4]
  rAVERAGE (CTRL/1 INC): 0.12
CCNK (IPI00783214); immobilized VI16742
  Ki: 120 µM
CCNK (IPI00783214); second vs first incubation
  rAVERAGE (2 INC/1 INC): 0.70
ERCC2 (IPI00029728); [4]
  rAVERAGE (CTRL/1 INC): 0.17
ERCC2 (IPI00029728); immobilized VI16742
  Ki: 118 µM
ERCC2 (IPI00029728); second vs first incubation
  rAVERAGE (2 INC/1 INC): 0.69
LIMS1 (IPI00788612); [4]
  rAVERAGE (CTRL/1 INC): 0.04
LIMS1 (IPI00788612); immobilized VI16742
  Ki: 143 µM
LIMS1 (IPI00788612); second vs first incubation
  rAVERAGE (2 INC/1 INC): 0.73
PARVA (IPI00018963); [4]
  rAVERAGE (CTRL/1 INC): 0.06
PARVA (IPI00018963); immobilized VI16742
  Ki: 155 µM
PARVA (IPI00018963); second vs first incubation
  rAVERAGE (2 INC/1 INC): 0.75
RSU1 (IPI00847168); 5 h vs 2.5 h incubation time
  r (5 h/2.5 h INC. TIME): 1.34
RSU1 (IPI00847168); [4]
  rAVERAGE (CTRL/1 INC): 0.07
RSU1 (IPI00847168); immobilized VI16742
  Ki: 216 µM
RSU1 (IPI00847168); second vs first incubation
  rAVERAGE (2 INC/1 INC): 0.81
WDR68 (IPI00006754); 3 mg vs 1 mg lysate
  r (3 MG/1 MG LYSATE): 2.58
WDR68 (IPI00006754); 5 h vs 2.5 h incubation time
  r (5 h/2.5 h INC. TIME): 1.31
WDR68 (IPI00006754); [4]
  rAVERAGE (CTRL/1 INC): 0.17
WDR68 (IPI00006754); immobilized VI16742
  Ki: 249 µM
WDR68 (IPI00006754); second vs first incubation
  rAVERAGE (2 INC/1 INC): 0.83

## COc1cc2ncnc(Nc3ccc(F)c(Cl)c3)c2cc1OCCCN1CCOCC1 [gefitinib]
ALK2 (ACVR1)
  rAVERAGE (10 nM/0 nM Gef.): 0.76
  rAVERAGE (100 nM/0 nM Gef.): 1.25
  rAVERAGE (1000 nM/0 nM Gef.): 0.77
  rAVERAGE (10000 nM/0 nM Gef.): 0.85
MNK1 (MKNK1)
  rAVERAGE (10 nM/0 nM Gef.): 0.76
  rAVERAGE (100 nM/0 nM Gef.): 1.00
  rAVERAGE (1000 nM/0 nM Gef.): 0.73
  rAVERAGE (10000 nM/0 nM Gef.): 0.37
RPL7A
  rAVERAGE (10 nM/0 nM Gef.): 0.92
  rAVERAGE (100 nM/0 nM Gef.): 0.88
  rAVERAGE (1000 nM/0 nM Gef.): 0.59
  rAVERAGE (10000 nM/0 nM Gef.): 0.79

## CC(C)n1c(=O)ccc2cnc(Nc3ccc(OCCN)cc3)nc21 [compound 16742]
YES; EXPERIMENT 1
  Percent bound at 1.87 μM 16742 conc: 4.07%
  Percent bound at 8.74 μM 16742 conc: 25.17%
  Percent bound at 52 μM 16742 conc: 62.69%
YES; EXPERIMENT 1, read-out: Kd
  Kd: 29.3 µM
YES; EXPERIMENT 2
  Percent bound at 1.87 μM 16742 conc: 3.61%
  Percent bound at 8.74 μM 16742 conc: 15.31%
  Percent bound at 52 μM 16742 conc: 54.74%
YES; EXPERIMENT 2, read-out: Kd
  Kd: 44.3 µM
YES; read-out: Kd Avg
  Kd: 36.8 µM

— US8959984B2, “Proteome-wide quantification of small molecule binding to cellular target proteins” (priority 2007, dated 2015)
